Experimental data from article PMC8626775, “Anti-schistosomal activities of quinoxaline-containing compounds: From hit identification to lead optimisation” (European Journal of Medicinal Chemistry, 2021).
Like-named read-outs stand apart in the source and are kept apart here.

Experiments:
S. mansoni schistosomula = S. mansoni schistosomula high-throughput phenotype and motility screen (Roboworm), 72 h; type: cell-based, Schistosoma mansoni; conditions: for EC50: Schistosoma mansoni; for Effect on phenotype and motility of S. mansoni schistosomula: primary tested concentrations 10 and 50 μM
Experimental: Cercariae derived from the NMRI ([…]) Puerto Rican strain (PR-1) of S. mansoni were shed from two Biomphalaria glabrata strains, the NMRI albino and pigmented outbred strains, under intensified lighting conditions (1 h of incubation at 26 °C). Cercariae were then mechanically transformed into schistosomula as previously described.
High-throughput screening (HTS) of selected compounds was conducted as previously described. Briefly, newly transformed schistosomula were distributed in a 384-well tissue culture plate (PerkinElmer, cat 6007460, seeding density of 120 parasites/well). Each compound (at a single concentration or two-fold titrations) was transferred into individual wells alongside the positive and negative controls (AUR at 10 μM final concentration in 0.625% DMSO and 0.625% DMSO, respectively). Schistosomula/compound co-cultures were then incubated at 37 °C for 72 h in a humidified atmosphere containing 5% CO2. Following the co-culture period, automatic assessment of compound-induced schistosomula motility and phenotypic changes were conducted with the high-content imaging platform Roboworm using the image analysis model previously described by Paveley et al..

S. mansoni adult worms = assay: S. mansoni adult worm motility screen (WormassayGP2), 72 h; type: cell-based, Schistosoma mansoni
Excerpt: Mice (Mus musculus HsdOLa:TO - Tuck Ordinary; Envigo, UK) were used for the mammalian-specific propagation of the S. mansoni life cycle. Experimental animals were infected with 4000 or 180 S. mansoni cercariae/mouse and perfused three- or seven-weeks post-infection to obtain S. mansoni juvenile or adult worms, respectively. Preparation steps following perfusion have been described previously. Briefly, the parasite material was washed three times with pre-warmed adult worm media (DMEM (Gibco, Paisley, UK) supplemented with 10% (v/v) Fetal Calf Serum (FCS, Gibco, Paisley, UK), 1% (v/v) L-glutamine (Gibco, Paisley, UK) and an antibiotic mixture (150 Units/ml penicillin and 150 μg/ml streptomycin; Gibco, UK)) to remove residual host contamination and incubated in a humidified environment containing 5% CO2 at 37 °C for at least 1 h.
For the evaluation of anti-schistosomal activity on the adult stage of the parasite, 7-wk old worms were transferred into 48 well tissue culture plates (1–3 worm pairs/well, in duplicate). […] DMSO (0.5%) and praziquantel (10 μM in 0.5% DMSO) were also included as negative and positive control treatments. Treated adult worms were incubated for 72 h in a humidified environment containing 5% CO2 at 37 °C. Parasite motility after compound treatment was assessed by a digital image processing-based system (WormassayGP2), modified after Wormassay. Following compound-parasite co-incubation, eggs were collected, fixed in formalin (10% v/v formaldehyde) and enumerated aiming to collect further information on any compound-induced effects on parasite fecundity and IVLE production.

[1] = 72 h, Table 2, motility, 72 h, three replicate titrations (0.313–10 μM), read-out: Activity on schistosomula (EC50, μM - 72 h) M
[2] = 72 h, Table 2, phenotype, 72 h, three replicate titrations (0.313–10 μM), read-out: Activity on schistosomula (EC50, μM - 72 h) P
[3] = 72 h, Table S7, motility, 95% CI in brackets, read-out: Activity on schistosomula (EC50, µM - 72 h) (95% CI) M
[4] = 72 h, Table S7, phenotype, 95% CI in brackets, read-out: Activity on schistosomula (EC50, µM - 72 h) (95% CI) P
[5] = Table 5, Series C, read-out: Anti-schistosomal activity EC50 Schistosomula (μM) Motility
[6] = Table 5, Series C, read-out: Anti-schistosomal activity EC50 Schistosomula (μM) Phenotype
[7] = 72 h, read-out: EC50 on schistosomula (bounds and ranges given)
[8] = 72 h, Table 1, 72 h, two dose response titrations (0.313–10 μM), 95% CI in brackets, read-out: Activity on schistosomula (EC50, μM - 72 h) Motility
[9] = 72 h, Table 1, 72 h, two dose response titrations (0.313–10 μM), 95% CI in brackets, read-out: Activity on schistosomula (EC50, μM - 72 h) Phenotype
[10] = Fig. S3, average schistosomula EC50, read-out: EC50 (Fig. S3, anti-schistosomula activity)
[11] = 72 h, Table 1, mean of phenotype and motility EC50, 72 h, read-out: Activity on schistosomula (EC50, μM - 72 h) Average
[12] = Table 3, read-out: Anti-schistosomal activity EC50 (μM) Schistosomula Motility
[13] = Table 3, read-out: Anti-schistosomal activity EC50 (μM) Schistosomula Phenotype

EC50 (S. mansoni schistosomula; [8]) [µM] | EC50 (S. mansoni schistosomula; [9]) [µM] | EC50 (S. mansoni schistosomula; [10]) [µM] | Structure (SMILES) | Effect on phenotype and motility of S. mansoni schistosomula (S. mansoni schistosomula; 72 h) | further results
 |  |  | O=C(Nc1ccc2nc(Nc3ccc(Cl)c(Cl)c3)c(Nc3ccc(Cl)c(Cl)c3)nc2c1)c1cccc(C(F)(F)F)c1 [Compound 22g, N-(2,3-bis((3,4-dichlorophenyl)amino)quinoxalin-6-yl)-3-(trifluoromethyl)benzamide] |  | EC50 (S. mansoni schistosomula; [1]): > 50 µM; EC50 (S. mansoni schistosomula; [2]): > 50 µM; EC50 (S. mansoni schistosomula; [3]): > 50 µM; EC50 (S. mansoni schistosomula; [4]): > 50 µM; EC50 (S. mansoni schistosomula; [5]): > 50 µM; EC50 (S. mansoni schistosomula; [6]): > 50 µM
 |  |  | Cc1cccc(Nc2nc3ccc([N+](=O)[O-])cc3nc2Nc2cccc(C)c2C)c1C [Compound 27, N2, N3-bis(2,3-dimethylphenyl)-6-nitroquinoxaline-2,3-diamine] |  | EC50 (S. mansoni schistosomula; [1]): > 10 µM; EC50 (S. mansoni schistosomula; [2]): > 10 µM; EC50 (S. mansoni schistosomula; [3]): > 10 µM; EC50 (S. mansoni schistosomula; [4]): > 10 µM; EC50 (S. mansoni schistosomula; [7]): > 10 µM; EC50 (S. mansoni schistosomula; Table 4, Series A, read-out: Anti-schistosomal activity EC50 Schistosomula (μM) Motility): > 10 µM; EC50 (S. mansoni schistosomula; Table 4, Series A, read-out: Anti-schistosomal activity EC50 Schistosomula (μM) Phenotype): > 10 µM
 |  |  | Clc1ccc(Nc2nc3ccc(N4CCCC4)cc3nc2Nc2ccc(Cl)c(Cl)c2)cc1Cl [Compound 22b, N^2, N^3-bis(3,4-dichlorophenyl)-6-(pyrrolidin-1-yl)quinoxaline-2,3-diamine] |  | Activity on schistosomula in the primary screen at 50 μM (S. mansoni schistosomula; 50 μM, 72 h): affected schistosomula motility, but not phenotype; EC50 (S. mansoni schistosomula; [1]): > 10 µM; EC50 (S. mansoni schistosomula; [2]): > 10 µM; EC50 (S. mansoni schistosomula; [3]): > 10 µM; EC50 (S. mansoni schistosomula; [4]): > 10 µM; EC50 (S. mansoni schistosomula; [5]): > 10 µM; EC50 (S. mansoni schistosomula; [6]): > 10 µM
> 50 | > 50 | > 50 | COc1ccc(OC)c(Nc2nc3ccccc3nc2Nc2cc(OC)ccc2OC)c1 [Compound 8] | did not have any effect | 
1.44 | 1.23 |  | COC(=O)c1ccc(Nc2nc3ccc([N+](=O)[O-])cc3nc2Nc2ccc(C(=O)OC)cc2)cc1 [Compound 23] |  | Effect on adult worm motility at 12.5 and 6.25 μM (S. mansoni adult worms): particularly active; Activity on schistosomula in the primary screen at 10 μM (S. mansoni schistosomula; 72 h): retained activity; EC50 (S. mansoni schistosomula; [11]): 1.33 µM
> 50 | > 50 | > 50 | FC(F)(F)c1cccc(/N=c2\[nH]c3ccccc3s\c2=N\c2cccc(C(F)(F)F)c2)c1 [Compound 4] | did not have any effect | 
> 50 | > 50 | > 50 | Cc1ccc(Sc2nc3ccccc3nc2Sc2ccc(C)cc2)cc1 [Compound 14] | did not have any effect | 
> 50 | > 50 | > 50 | Cc1ccc(/N=c2\[nH]c3ccccc3s\c2=N\c2ccc(C)cc2)cc1 [Compound 2] | did not have any effect | 
1.12 | 1.38 |  | FC(F)(F)c1cccc(Nc2nc3ccccc3nc2Nc2cccc(C(F)(F)F)c2)c1 [Compound 11] |  | Effect on adult worm motility at 3.15 μM (S. mansoni adult worms; 3.15 μM, lowest concentration tested): complete cessation of worm mobility; Effect on adult worm motility at 12.5 and 6.25 μM (S. mansoni adult worms): particularly active; Activity on schistosomula in the primary screen at 10 μM (S. mansoni schistosomula; 72 h): retained activity; EC50 (S. mansoni schistosomula; [11]): 1.25 µM
 |  |  | O=[N+]([O-])c1ccc2nc(O)c(O)nc2c1 [6-nitro-2,3-dihydroxy-quinoxaline] |  | EC50 (S. mansoni schistosomula; [1]): > 50 µM; EC50 (S. mansoni schistosomula; [2]): > 50 µM; EC50 (S. mansoni schistosomula; [3]): > 50 µM; EC50 (S. mansoni schistosomula; [4]): > 50 µM; EC50 (S. mansoni schistosomula; [12]): > 50 µM; EC50 (S. mansoni schistosomula; [13]): > 50 µM
> 10 | > 10 |  | O=C(O)C=Cc1cccc(Nc2nc3ccc([N+](=O)[O-])cc3nc2Nc2cccc(C=CC(=O)O)c2)c1 [Compound 24] | weak effect | 
1.23 | 1.62 |  | Cc1cccc(Nc2nc3ccc([N+](=O)[O-])cc3nc2Nc2cccc(C)c2)c1 [Compound 20] |  | Effect on adult worm motility at 12.5 and 6.25 μM (S. mansoni adult worms): particularly active; Activity on schistosomula in the primary screen at 10 μM (S. mansoni schistosomula; 72 h): retained activity; EC50 (S. mansoni schistosomula; [11]): 1.42 µM
> 10 | > 10 | > 10 | COc1ccc2nc(Nc3ccccc3)c(Nc3ccccc3)nc2c1 [Compound 6] | weak effect | 
5.83 | 5.12 |  | CCOC(=O)c1ccc(Nc2nc3ccccc3nc2Nc2ccc(C(=O)OCC)cc2)cc1 [Compound 10] |  | Activity on schistosomula in the primary screen at 10 μM (S. mansoni schistosomula; 72 h): retained activity; EC50 (S. mansoni schistosomula; [11]): 5.47 µM
> 10 | > 10 |  | c1ccc(-c2nc3ccccc3nc2-c2ccccc2)cc1 [Compound 18] | weak effect | 
> 10 | > 10 | > 10 | Cc1ccc(Nc2nc3ccccc3nc2Nc2ccc(C)cc2)cc1 [Compound 15] | weak effect | 
> 10 | > 10 | > 10 | FC(F)(F)c1cccc(Oc2nc3ccccc3nc2Oc2cccc(C(F)(F)F)c2)c1 [Compound 12] | weak effect | 
> 10 | > 10 |  | Cc1ccc2[nH]c(=Nc3ccccc3C)c(=Nc3ccccc3C)[nH]c2c1 [Compound 5] | weak effect | 
2.45 | 2.88 |  | Cc1ccc(Nc2nc3ccccc3nc2Nc2ccc(C)c(Cl)c2)cc1Cl [Compound 17] |  | Activity on schistosomula in the primary screen at 10 μM (S. mansoni schistosomula; 72 h): retained activity; EC50 (S. mansoni schistosomula; [11]): 2.66 µM; EC50 (S. mansoni schistosomula; [7]): 1 to 2 µM
> 10 | > 10 |  | OCc1cccc(N=c2[nH]c3ccccc3[nH]c2=Nc2cccc(CO)c2)c1 [Compound 7] | weak effect | 
 |  |  | O=[N+]([O-])c1ccc2nc(Cl)c(Cl)nc2c1 [2,3-dichloro-6-nitroquinoxaline] |  | EC50 (S. mansoni schistosomula; [1]): > 10 µM; EC50 (S. mansoni schistosomula; [2]): > 10 µM; EC50 (S. mansoni schistosomula; [3]): > 10 µM; EC50 (S. mansoni schistosomula; [4]): > 10 µM; EC50 (S. mansoni schistosomula; [12]): > 10 µM; EC50 (S. mansoni schistosomula; [13]): > 10 µM
> 10 | > 10 |  | Fc1ccccc1Nc1nc2ccccc2nc1Nc1ccccc1F [Compound 13] | weak effect | 
 |  |  | O=C(Nc1ccc2nc(Nc3ccc(Cl)c(Cl)c3)c(Nc3ccc(Cl)c(Cl)c3)nc2c1)C1CCCCC1 [Compound 22e, N-(2,3-bis((3,4-dichlorophenyl)amino)quinoxalin-6-yl)cyclohexanecarboxamide] |  | EC50 (S. mansoni schistosomula; [1]): > 50 µM; EC50 (S. mansoni schistosomula; [2]): > 50 µM; EC50 (S. mansoni schistosomula; [3]): > 50 µM; EC50 (S. mansoni schistosomula; [4]): > 50 µM; EC50 (S. mansoni schistosomula; [5]): > 50 µM; EC50 (S. mansoni schistosomula; [6]): > 50 µM
4.87 | 5.92 |  | CCOc1ccc(Nc2nc3ccccc3nc2Nc2ccc(OCC)cc2)cc1 [Compound 9] |  | Activity on schistosomula in the primary screen at 10 μM (S. mansoni schistosomula; 72 h): retained activity; EC50 (S. mansoni schistosomula; [11]): 5.39 µM
> 50 | > 50 | > 50 | COc1ccc(/N=c2\[nH]c3ccccc3s\c2=N\c2ccc(OC)cc2)cc1 [Compound 3] | did not have any effect | 
